# Measurements published in US9346815B2, “5-chloro-2-difluoromethoxyphenyl pyrazolopyrimidine compounds, compositions and methods of use thereof” (Genentech, Inc., priority 2014, dated 2016).
# Experiments:
# [1] = target: isolated recombinant JAK2 kinase domain (Homo sapiens (Human), UniProt O60674); assay: JAK2 enzyme assay (Caliper LabChip, peptide phosphorylation); format: biochemical; settings: 25 μM ATP
# [2] = target: isolated recombinant JAK1 kinase domain (Homo sapiens (Human), UniProt P23458); assay: JAK1 enzyme assay (Caliper LabChip, peptide phosphorylation); format: biochemical; settings: isolated recombinant JAK1 kinase domain, 25 μM ATP
# Sequence of isolated recombinant JAK1 kinase domain (P23458 875-1153): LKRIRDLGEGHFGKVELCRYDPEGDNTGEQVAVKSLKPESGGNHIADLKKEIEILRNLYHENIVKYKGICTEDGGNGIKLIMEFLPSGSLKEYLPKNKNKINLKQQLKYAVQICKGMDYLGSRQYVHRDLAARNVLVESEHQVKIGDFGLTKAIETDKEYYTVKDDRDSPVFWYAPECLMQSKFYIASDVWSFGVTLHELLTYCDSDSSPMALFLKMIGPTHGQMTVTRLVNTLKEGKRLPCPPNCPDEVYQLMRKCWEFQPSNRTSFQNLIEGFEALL
# Sequence of isolated recombinant JAK2 kinase domain (O60674 849-1124): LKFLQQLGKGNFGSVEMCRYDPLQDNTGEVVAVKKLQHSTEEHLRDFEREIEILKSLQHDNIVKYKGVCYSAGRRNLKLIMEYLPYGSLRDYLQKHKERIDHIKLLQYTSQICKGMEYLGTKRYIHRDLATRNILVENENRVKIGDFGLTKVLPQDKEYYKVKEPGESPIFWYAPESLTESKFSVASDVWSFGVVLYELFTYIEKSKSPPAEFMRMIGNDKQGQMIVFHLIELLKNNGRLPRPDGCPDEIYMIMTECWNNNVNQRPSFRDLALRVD
SMILES,Ki [1],Ki [2]
"CN1[C@@H]2CC[C@H]1CN(C(=O)Cn1cc(NC(=O)c3cnn4cccnc34)c(-c3cc(Cl)ccc3OC(F)F)n1)C2 [Example 242, N-[3-[5-chloro-2-(difluoromethoxy)phenyl]-l-[2-[(1S,5R)-8-methyl-3,8-diazabicyclo[3.2.1]octan-3-yl]-2-oxo-ethyl]pyrazol-4-yl]pyrazolo[1,5-a]pyrimidine-3-carboxamide]",1030 pM,950 pM
"Nc1nn2cccnc2c1C(=O)Nc1cn(CC(=O)N2CCC(N3CC[C@@H](O)C3)CC2)nc1-c1cc(Cl)ccc1OC(F)F [Example 76, 2-amino-N-[3-[5-chloro-2-(difluoromethoxy)phenyl]-1-[2-[4-[(3R)-3-hydroxypyrrolidin-1-yl]-1-piperidyl]-2-oxo-ethyl]pyrazol-4-yl]pyrazolo[1,5-a]pyrimidine-3-carboxamide]",520 pM,500 pM
"CC1(O)CCN(C(=O)Cn2cc(NC(=O)c3cnn4cccnc34)c(-c3cc(Cl)ccc3OC(F)F)n2)C1 (stereo not shown) [Example 269, N-[3-[5-chloro-2-(difluoromethoxy)phenyl]-1-[2-(3-hydroxy-3-methyl-pyrrolidin-1-yl)-2-oxo-ethyl]pyrazol-4-yl]pyrazolo[1,5-a]pyrimidine-3-carboxamide]",830 pM,330 pM
"Nc1nn2cccnc2c1C(=O)Nc1cn(CC(=O)N2CCC(O)(Cc3ccccc3)CC2)nc1-c1cc(Cl)ccc1OC(F)F [Example 279, 2-amino-N-[1-[2-(4-benzyl-4-hydroxy-1-piperidyl)-2-oxo-ethyl]-3-[5-chloro-2-(difluoromethoxy)phenyl]pyrazol-4-yl]pyrazolo[1,5-a]pyrimidine-3-carboxamide]",220 pM,390 pM
"CS(=O)(=O)N1CCC(CN2C[C@@H]3CN(C(=O)Cn4cc(NC(=O)c5cnn6cccnc56)c(-c5cc(Cl)ccc5OC(F)F)n4)C[C@@H]3C2)CC1 [Example 34, N-[1-[2-[(3aR,6aS)-2-[(1-methylsulfonyl-4-piperidyl)methyl]-1,3,3a,4,6,6a-hexahydropyrrolo[3,4-c]pyrrol-5-yl]-2-oxo-ethyl]-3-[5-chloro-2-(difluoromethoxy)phenyl]pyrazol-4-yl]pyrazolo[1,5-a]pyrimidine-3-carboxamide]",460 pM,470 pM
"CN(C1CCN(C(=O)Cn2cc(NC(=O)c3cnn4cccnc34)c(-c3cc(Cl)ccc3OC(F)F)n2)CC1)C(Cc1ccccc1)C(F)(F)F (stereo not shown) [Example 133, N-[1-[2-[4-[(1-benzyl-2,2,2-trifluoro-ethyl)-methyl-amino]-1-piperidyl]-2-oxo-ethyl]-3-[5-chloro-2-(difluoromethoxy)phenyl]pyrazol-4-yl]pyrazolo[1,5-a]pyrimidine-3-carboxamide]",8330 pM,6510 pM
"O=C(Nc1cn(CC(=O)N2CCC(OCCO)CC2)nc1-c1cc(Cl)ccc1OC(F)F)c1cnn2cccnc12 [Example 275, N-[3-[5-chloro-2-(difluoromethoxy)phenyl]-1-[2-[4-(2-hydroxyethoxy)-1-piperidyl]-2-oxo-ethyl]pyrazol-4-yl]pyrazolo[1,5-a]pyrimidine-3-carboxamide]",890 pM,310 pM
"CN1CCN(C(=O)Cn2cc(NC(=O)c3c(N)nn4cccnc34)c(-c3cc(Cl)ccc3OC(F)F)n2)CC1 [Example 243, 2-amino-N-[3-[5-chloro-2-(difluoromethoxy)phenyl]-1-[2-(4-methylpiperazin-1-yl)-2-oxo-ethyl]pyrazol-4-yl]pyrazolo[1,5-a]pyrimidine-3-carboxamide]",360 pM,490 pM
"O=C(Nc1cn(CC(=O)N2CCN(c3ccccc3)CC2)nc1-c1cc(Cl)ccc1OC(F)F)c1cnn2cccnc12 [Example 236, N-[3-[5-chloro-2-(difluoromethoxy)phenyl]-1-[2-oxo-2-(4-phenylpiperazin-1-yl)ethyl]pyrazol-4-yl]pyrazolo[1,5-a]pyrimidine-3-carboxamide]",740 pM,410 pM
"CN1CC2(C1)CN(C(=O)Cn1cc(NC(=O)c3cnn4cccnc34)c(-c3cc(Cl)ccc3OC(F)F)n1)C2 [Example 214, N-[3-[5-chloro-2-(difluoromethoxy)phenyl]-1-[2-(6-methyl-2,6-diazaspiro[3.3]heptan-2-yl)-2-oxo-ethyl]pyrazol-4-yl]pyrazolo[1,5-a]pyrimidine-3-carboxamide]",1290 pM,1170 pM
"O=C(Nc1cn(CC(=O)N2CCC(O)(c3ccccc3)CC2)nc1-c1cc(Cl)ccc1OC(F)F)c1cnn2cccnc12 [Example 289, N-[3-[5-chloro-2-(difluoromethoxy)phenyl]-1-[2-(4-hydroxy-4-phenyl-1-piperidyl)-2-oxo-ethyl]pyrazol-4-yl]pyrazolo[1,5-a]pyrimidine-3-carboxamide]",380 pM,300 pM
"CS(=O)(=O)CCN1CCN(C(=O)Cn2cc(NC(=O)c3cnn4cccnc34)c(-c3cc(Cl)ccc3OC(F)F)n2)CC1 [Example 232, N-[3-[5-chloro-2-(difluoromethoxy)phenyl]-1-[2-[4-(2-methylsulfonylethyl)piperazin-1-yl]-2-oxo-ethyl]pyrazol-4-yl]pyrazolo[1,5-a]pyrimidine-3-carboxamide]",1460 pM,740 pM
"CN(C)CCOC1CCN(C(=O)Cn2cc(NC(=O)c3cnn4cccnc34)c(-c3cc(Cl)ccc3OC(F)F)n2)CC1 [Example 73, N-[3-[5-chloro-2-(difluoromethoxy)phenyl]-1-[2-[4-[2-(dimethylamino)ethoxy]-1-piperidyl]-2-oxo-ethyl]pyrazol-4-yl]pyrazolo[1,5-a]pyrimidine-3-carboxamide]",1710 pM,710 pM
"Nc1nn2cccnc2c1C(=O)Nc1cn(CC(=O)N2CCN(CCO)CC2)nc1-c1cc(Cl)ccc1OC(F)F [Example 244, 2-amino-N-[3-[5-chloro-2-(difluoromethoxy)phenyl]-1-[2-[4-(2-hydroxyethyl)piperazin-1-yl]-2-oxo-ethyl]pyrazol-4-yl]pyrazolo[1,5-a]pyrimidine-3-carboxamide]",240 pM,490 pM
"O=C(Nc1cn(CC(=O)N2CCN(CCOCCO)CC2)nc1-c1cc(Cl)ccc1OC(F)F)c1cnn2cccnc12 [Example 231, N-[3-[5-chloro-2-(difluoromethoxy)phenyl]-1-[2-[4-[2-(2-hydroxyethoxy)ethyl]piperazin-1-yl]-2-oxo-ethyl]pyrazol-4-yl]pyrazolo[1,5-a]pyrimidine-3-carboxamide]",1180 pM,540 pM
"O=C(Nc1cn(CC(=O)N2CC3(CCNCC3)C2)nc1-c1cc(Cl)ccc1OC(F)F)c1cnn2cccnc12 [Example 217, N-[3-[5-chloro-2-(difluoromethoxy)phenyl]-1-[2-(2,7-diazaspiro[3.5]nonan-2-yl)-2-oxo-ethyl]pyrazol-4-yl]pyrazolo[1,5-a]pyrimidine-3-carboxamide]",1370 pM,1070 pM
"Nc1nn2cccnc2c1C(=O)Nc1cn(CC(=O)N2CCOCC2)nc1-c1cc(Cl)ccc1OC(F)F [Example 290, 2-amino-N-[3-[5-chloro-2-(difluoromethoxy)phenyl]-1-(2-morpholino-2-oxo-ethyl)pyrazol-4-yl]pyrazolo[1,5-a]pyrimidine-3-carboxamide]",110 pM,240 pM
